Structures are written as SMILES.

The target of the experiment is T1, KDM4C (Homo sapiens, UniProt Q9H3R0).
T1 construct: N-terminal GST-tagged KDM4C^2-372 was purchased from BPS Biosciences; GST (N); purchased BPS Biosciences
T1 sequence (Q9H3R0 2-372): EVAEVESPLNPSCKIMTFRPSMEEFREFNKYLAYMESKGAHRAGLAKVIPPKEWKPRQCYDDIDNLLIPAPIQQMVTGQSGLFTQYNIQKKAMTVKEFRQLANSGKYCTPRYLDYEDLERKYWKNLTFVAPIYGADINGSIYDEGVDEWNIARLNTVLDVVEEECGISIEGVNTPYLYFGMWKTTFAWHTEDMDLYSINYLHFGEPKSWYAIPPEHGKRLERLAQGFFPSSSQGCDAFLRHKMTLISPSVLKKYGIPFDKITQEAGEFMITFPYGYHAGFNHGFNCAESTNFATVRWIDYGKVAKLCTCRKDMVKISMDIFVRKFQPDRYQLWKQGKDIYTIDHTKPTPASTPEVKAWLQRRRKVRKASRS
As to the kind of experiment: KDM4C Assay (SAMDI mass spectrometry demethylase assay). In kind it is biochemical. The following applies: N-terminal GST-tagged KDM4C 2-372; class symbols; read-out: 4C IC50. The procedure:
N-terminal GST-tagged KDM4C^2-372 was purchased from BPS Biosciences. Peptides were synthesized by BioPeptide and all other reagents were purchased from Sigma-Aldrich at the highest level of purity possible. Assays were performed in a 50 μL volume in 384-well V-bottom polypropylene microplates (Greiner) at 25° C. Optimized 1× assay buffer was 50 mM HEPES (pH=8.0), 100 μM sodium ascorbate, 20 mM NaCl, 10 μM ammonium iron sulfate, 1 mM tris(2-carboxyethyl)phosphine (TCEP), 0.002% Tween-20, and 0.005% BSG. For compound screening, 35 μL of KDM4C^2-372 (final concentration, f.c.=5 nM) was added using a Multidrop Combi and preincubated with 1 μL of test compound (f.c.=10 μM) for 30 minutes and subsequently 15 μL of peptide with the following sequence NH2-ARTKQTAR(Kme3)STGGKAPRKQLA(K-Ahx-Biotin)-amide (f.c.=500 nM) and 2-oxoglutarate (f.c.=15 μM) was added by Multidrop Combi to begin the reaction. Reactions proceeded for 150 minutes and were stopped by the addition of 5 μL of formic acid (f.c.=0.5%) using a Multidrop Combi and then analyzed by SAMDI Tech Inc.
SAMDI Tech analyzed all reactions using self-assembled monoloayer desorption/ionization technology as previously described (Gerard-Levin Z A, Scholle M D, Eisenberg A H, et al.: High-throughput screening of small molecule libraries using SAMDI mass spectrometry. ACS Comb Sci 2011; 13:347-350). Briefly, a 2 μL sample of the stopped demethylase reactions were transferred to a SAMDI array coated with 384 biotin-neutravidin spots using a 384-channel pipet station. The SAMDI arrays were incubated for 1 h in a humidified chamber, followed by washing of the surface with deionized ultra-filtered water (DIUF) and drying under nitrogen. A matrix of 30 mg/ml 2′,4′,6′-Trihydroxyacetophenone monohydrate (THAP) in acetone was applied using a TPP Mosquito 1.2 μL tip by dispensing 50 nL on each of the 384 spots on the array. SAMDI-MS was run using acquisition method ReflectorPositiveUTX. The % conversion of substrate to product was calculated using the AUC of the substrate and product peptide peaks.
An IC50 value was determined by contacting various concentrations of a test compound with one of the KDM4A, KDM4C or KDMSC enzyme constructs and plotting a dose-response curve which associates the amount of inhibition of the enzyme relative to the concentration of the test compound. From the curve, the IC50 value (which represents the concentration of the test compound necessary to inhibit maximal enzymatic activity by 50%) was determined. Additionally, the slope of the linear range of the plotted curve, which indicates the speed with which the curve rises between the minimum and maximum, was calculated.
For `Cc1nn(C2CCCNCC2)cc1Nc1cnccc1C(=O)O` (single isomer, unassigned) [Compound 114], the IC50 was 100 to 1000 nM.

Take `Cc1nn(C2CCCNCC2)cc1Nc1cnccc1C(=O)O` (single isomer, unassigned) [Compound 116]: the half-inhibitory concentration (IC50) lay within 100 to 1000 nM.

For `Cn1ncc(-c2ccccc2)c1Nc1cnccc1C(=O)O` [Compound 1], the half-maximal inhibitory concentration (IC50) lay within 100 to 1000 nM.

`Cc1cn(-c2ccccc2)c(Nc2cnccc2C(=O)O)n1` [Compound 2]: the IC50 lay in the range of 100 to 1000 nM.

Consider `Cn1cc(-c2ccccc2)c(Nc2cnccc2C(=O)O)n1` [Compound 3], for which the IC50 is 1000 to 10000 nM.

Turning to `Cn1nc(-c2ccccc2)cc1Nc1cnccc1C(=O)O` [Compound 6], the IC50 fell in the range of 1000 to 10000 nM.

Take `Cn1cc(-c2ccc(F)cc2)c(Nc2cnccc2C(=O)O)n1` [Compound 7, 3-((4-(4-Fluorophenyl)-1-methyl-1H-pyrazol-3-yl)amino) isonicotinic acid]: the IC50 fell in the range of 100 to 1000 nM.

On to `Cn1ncc(-c2ccc(F)cc2)c1Nc1cnccc1C(=O)O` [Compound 8, 3-((4-(4-fluorophenyl)-1-methyl-1H-pyrazol-5-yl)amino) isonicotinic acid], for which the IC50 lay in the range of 1000 to 10000 nM.

With `Cn1cc(-c2cccc(F)c2)c(Nc2cnccc2C(=O)O)n1` [Compound 9, 3-((4-(3-Fluorophenyl)-1-methyl-1H-pyrazol-3-yl)amino) isonicotinic acid], the IC50 was 100 to 1000 nM.

Consider `Cn1ncc(-c2cccc(F)c2)c1Nc1cnccc1C(=O)O` [Compound 10, 3-((4-(3-Fluorophenyl)-1-methyl-1H-pyrazol-5-yl)amino) isonicotinic acid], for which the half-inhibitory concentration (IC50) was in the range of 1000 to 10000 nM.

In the case of `Cn1cc(-c2ccccc2F)c(Nc2cnccc2C(=O)O)n1` [Compound 11, 3-((4-(2-Fluorophenyl)-1-methyl-1H-pyrazol-3-yl)amino) isonicotinic acid], the IC50 is 100 to 1000 nM.

For `Cn1ncc(-c2ccccc2F)c1Nc1cnccc1C(=O)O` [Compound 12, 3-((4-(2-fluorophenyl)-1-methyl-1H-pyrazol-5-yl)amino) isonicotinic acid], the IC50 lay within 1 to 100 nM.

Turning to `Cn1cc(Nc2cnccc2C(=O)O)c(-c2ccccc2)n1` [Compound 13, 3-((1-methyl-3-phenyl-1H-pyrazol-4-yl)amino) isonicotinic acid], the IC50 lay in the range of 100 to 1000 nM.

On to `O=C(O)c1ccncc1Nc1nn(CCN2CCC(F)(F)CC2)cc1-c1ccccc1` [Compound 14, 3-((1-(2-(4,4-Difluoropiperidin-1-yl)ethyl)-4-phenyl-1H-pyrazol-3-yl)amino)isonicotinic acid], for which the IC50 was in the range of 100 to 1000 nM.

On to `O=C(O)c1ccncc1Nc1c(-c2ccccc2)cnn1CCN1CCC(F)(F)CC1` [Compound 15, 3-((1-(2-(4,4-difluoropiperidin-1-yl)ethyl)-4-phenyl-1H-pyrazol-5-yl)amino)isonicotinic acid], for which the IC50 fell in the range of 10000 to 100000 nM.

With `Cc1n[nH]c(C)c1Nc1cnccc1C(=O)O` [Compound 16, 3-((3,5-Dimethyl-1H-pyrazol-4-yl)amino)isonicotinic acid], the IC50 lay within 10000 to 100000 nM.

As to `O=C(O)c1ccncc1Nc1cn(CCN2CCC(F)(F)CC2)nc1-c1ccccc1` [Compound 17, 3-((1-(2-(4,4-Difluoropiperidin-1-yl)ethyl)-3-phenyl-1H-pyrazol-4-yl)amino)isonicotinic acid], the IC50 fell in the range of 1000 to 10000 nM.

In the case of `O=C(O)c1ccncc1Nc1cnn(CCN2CCC(F)(F)CC2)c1-c1ccccc1` [Compound 18, 3-((1-(2-(4,4-difluoropiperidin-1-yl)ethyl)-5-phenyl-1H-pyrazol-4-yl)amino)isonicotinic acid], the IC50 was in the range of 100 to 1000 nM.

For `Cc1nn(-c2ccccc2)cc1Nc1cnccc1C(=O)O` [Compound 19, 3-((3-Methyl-1-phenyl-1H-pyrazol-4-yl)amino)isonicotinic acid], the IC50 lay within 100 to 1000 nM.

Consider `Cc1c(Nc2cnccc2C(=O)O)cnn1-c1ccccc1` [Compound 20, 3-((5-methyl-1-phenyl-1H-pyrazol-4-yl)amino)isonicotinic acid], for which the IC50 was 1 to 100 nM.

As for `O=C(O)c1ccncc1Nc1cc(-c2ccccc2)nn1-c1ccccc1` [Compound 21, 3-((1,3-Diphenyl-1H-pyrazol-5-yl)amino)isonicotinic acid], the IC50 lay in the range of 100 to 1000 nM.

With `CC(C)n1nc(-c2ccccc2)cc1Nc1cnccc1C(=O)O` [Compound 22, 3-((1-Isopropyl-3-phenyl-1H-pyrazol-5-yl)amino)isonicotinic acid], the IC50 fell in the range of 100 to 1000 nM.

Turning to `O=C(O)c1ccncc1Nc1cc(-c2ccccc2)nn1C1CCOCC1` [Compound 23, 3-((3-Phenyl-1-(tetrahydro-2H-pyran-4-yl)-1H-pyrazol-5-yl)amino)isonicotinic acid], the IC50 lay in the range of 100 to 1000 nM.

With `Cn1nc(-c2ccc(Cl)cc2)cc1Nc1cnccc1C(=O)O` [Compound 24, 3-((3-(4-Chlorophenyl)-1-methyl-1H-pyrazol-5-yl)amino) isonicotinic acid], the IC50 was in the range of 1000 to 10000 nM.

With `Cn1nc(-c2cccc(Cl)c2)cc1Nc1cnccc1C(=O)O` [Compound 25, 3-((3-(3-chlorophenyl)-1-methyl-1H-pyrazol-5-yl)amino) isonicotinic acid], the IC50 is 1000 to 10000 nM.

Turning to `NCCn1nc(-c2ccccc2)cc1Nc1cnccc1C(=O)O` [Compound 26], the half-maximal inhibitory concentration (IC50) was in the range of 1000 to 10000 nM.

Take `COCCn1nc(-c2ccccc2)cc1Nc1cnccc1C(=O)O` [Compound 27, 3-((1-(2-Methoxyethyl)-3-phenyl-1H-pyrazol-5-yl)amino) isonicotinic acid]: the IC50 is 100 to 1000 nM.

For the molecule `Cc1c(Nc2cnccc2C(=O)O)cnn1Cc1ccccc1` [Compound 33, 3-((1-benzyl-5-methyl-1H-pyrazol-4-yl)amino)isonicotinic acid], the IC50 fell in the range of 1 to 100 nM.

As to `CN1CCN(CCn2cc(-c3ccccc3)c(Nc3cnccc3C(=O)O)n2)CC1` [Compound 34, 3-((1-(2-(4-Methylpiperazin-1-yl)ethyl)-4-phenyl-1H-pyrazol-3-yl)amino)isonicotinic acid], the IC50 fell in the range of 10000 to 100000 nM.

For `CN1CCN(CCn2ncc(-c3ccccc3)c2Nc2cnccc2C(=O)O)CC1` [Compound 35, 3-((1-(2-(4-methylpiperazin-1-yl)ethyl)-4-phenyl-1H-pyrazol-5-yl)amino)isonicotinic acid], the IC50 lay in the range of 100 to 1000 nM.

On to `CCn1nc(-c2ccccc2)cc1Nc1cnccc1C(=O)O` [Compound 36, 3-((1-Ethyl-3-phenyl-1H-pyrazol-5-yl)amino)isonicotinic acid], for which the IC50 fell in the range of 100 to 1000 nM.

Consider `N[C@H]1CC[C@@H](n2nc(-c3ccccc3)cc2Nc2cnccc2C(=O)O)CC1` [Compound 37, 3-((1-((cis)-4-aminocyclohexyl)-3-phenyl-1H-pyrazol-5-yl)amino)isonicotinic acid], for which the IC50 lay in the range of 100 to 1000 nM.

In the case of `N[C@H]1CC[C@H](n2nc(-c3ccccc3)cc2Nc2cnccc2C(=O)O)CC1` [Compound 38, 3-((1-((trans)-4-aminocyclohexyl)-3-phenyl-1H-pyrazol-5-yl)amino)isonicotinic acid], the IC50 was in the range of 10000 to 100000 nM.

For the molecule `O=C(O)c1ccncc1Nc1cc(-c2ccccc2)nn1[C@H]1CC[C@H](O)CC1` [Compound 39, 3-((1-((trans)-4-hydroxycyclohexyl)-3-phenyl-1H-pyrazol-5-yl)amino)isonicotinic acid], the IC50 was 100 to 1000 nM.

Turning to `O=C(O)c1ccncc1Nc1cc(-c2ccccc2)nn1[C@H]1CC[C@@H](O)CC1` [Compound 40, 3-((1-((cis)-4-Hydroxycyclohexyl)-3-phenyl-1H-pyrazol-5-yl)amino)isonicotinic acid], the IC50 lay within 1000 to 10000 nM.

With `O=C(O)c1ccncc1Nc1cn(-c2ccccc2)nc1-c1ccccc1` [Compound 41, 3-((1,3-Diphenyl-1H-pyrazol-4-yl)amino)isonicotinic acid], the 50% inhibitory concentration (IC50) lay within 100 to 1000 nM.

The record behind these values is US20170291890A1 (Epizyme, Inc., priority 2014, published 2017).
